These results are taken from patent US10582709B2, “Butyrolactones as herbicides” (FMC Corporation, priority 2015, dated 2020).

Common to all, as to format: in vivo
Common to all, as to conditions: 1000 g ai/ha, visual rating after approx. 10 d, 0 to 100 scale, 0 no effect, 100 complete control

The subject of experiment [1] is corn (Zea mays). In words: Test A preemergence, corn. The source says:
(§1) Seeds of plant species selected from barnyardgrass (Echinochloa crus-galli), crabgrass (large crabgrass, Digitaria sanguinalis), kochia (Kochia scoparia), ragweed (common ragweed, Ambrosia elatior), morningglory (Ipomoea spp.), velvetleaf (Abutilon theophrasti), ryegrass, Italian (Italian ryegrass, Lolium multiflorum), foxtail, giant (giant foxtail, Setaria faberii), wheat (Triticum aestivum), corn (Zea mays), and pigweed (Amaranthus retroflexus), were planted into a blend of loam soil and sand and treated preemergence with a directed soil spray using test chemicals formulated in a non-phytotoxic solvent mixture which included a surfactant. At the same time, plants selected from these crop and weed species and also blackgrass (Alopecurus myosuroides), and galium (catchweed bedstraw, Galium aparine), were planted in pots containing the same blend of loam soil and sand and treated with postemergence applications of test chemicals formulated in the same manner. Plants ranged in height from 2 to 10 cm and were in the one- to two-leaf stage for the postemergence treatment. Treated plants and untreated controls were maintained in a greenhouse for approximately 10 d, after which time all treated plants were compared to untreated controls and visually evaluated for injury. Plant response ratings, summarized in Table A, are based on a 0 to 100 scale where 0 is no effect and 100 is complete control. A dash (-) response means no test result.

In experiment [2] the test system is barnyardgrass (Echinochloa crus-galli). In words: Test A postemergence, barnyardgrass. In a few lines: (§2)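 Following ~10 d greenhouse growth, treated plants were compared with untreated controls and injury rated 0 (no effect) to 100 (complete control). Treatments: directed spray onto seeded loam/sand soil, or onto one- to two-leaf plants 2–10 cm tall, compound formulated in solvent with surfactant.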

Experiment [3] relates to crabgrass (large crabgrass, Digitaria sanguinalis). In words: Test A postemergence, crabgrass.
Source text: as §1

In experiment [4] the test system is morningglory (Ipomoea spp.). In words: Test A postemergence, morningglory.
Source text: as §1

The subject of experiment [5] is corn (Zea mays). In words: Test A postemergence, corn. The gist of the method: as §2
Experiment [6] relates to wheat (Triticum aestivum). In words: Test A preemergence, wheat.
Source text: as §1

The test system of experiment [7] is wheat (Triticum aestivum). In words: Test A postemergence, wheat. In a few lines: as §2
Experiment [8] deals with morningglory (Ipomoea spp.). In words: Test A preemergence, morningglory.
Source text: as §1

Experiment [9] concerns foxtail, giant (giant foxtail, Setaria faberii). In words: Test A preemergence, giant foxtail. The gist of the method: as §2
In experiment [10] the test system is velvetleaf (Abutilon theophrasti). In words: Test A preemergence, velvetleaf.
Source text: as §1

Experiment [11] shares this test system. In words: Test A postemergence, velvetleaf.
Source text: as §1

Experiment [12] deals with foxtail, giant (giant foxtail, Setaria faberii). In words: Test A postemergence, giant foxtail. In a few lines:
as §2

In experiment [13] the test system is pigweed (Amaranthus retroflexus). In words: Test A postemergence, pigweed. The gist of the method: as §2
The test system is the same in experiment [14]. In words: Test A preemergence, pigweed. In a few lines: as §2
For experiment [15], the system named is crabgrass (large crabgrass, Digitaria sanguinalis). In words: Test A preemergence, crabgrass.
Source text: as §1

Experiment [16] deals with barnyardgrass (Echinochloa crus-galli). In words: Test A preemergence, barnyardgrass. In a few lines:
as §2

As to `Cc1ccccc1NC(=O)C1C(=O)OCC1c1ccc(F)cc1` (racemic) [Compound 5], the “Plant response rating, Corn” value in the experiment with corn (Zea mays) [1] and in the experiment with corn (Zea mays) [5] was 0 throughout. The entries for the “Plant response rating, Barnyardgrass” value in [2] and in experiment [16] were 50 and 60, respectively. For the same molecule, the “Plant response rating, Crabgrass” value in [3] and in experiment [15] was 80 each time. Also, the “Plant response rating, Morningglory” value in experiment [4] and in experiment [8] was 0 in each case. In addition, the “Plant response rating, Wheat” value in experiment [6] and in [7] was 0 each time. Further, the figures for the “Plant response rating, Foxtail, Giant” value in [9] and in experiment [12] were 70 and 60, respectively. In addition, the “Plant response rating, Velvetleaf” value in experiment [10] and in [11] was 0 throughout. The “Plant response rating, Pigweed” value in experiment [13] and in experiment [14] was 0 each time.
Regarding `O=C(Nc1ccccc1Cl)C1C(=O)OCC1c1ccc(F)cc1` (racemic) [Compound 1], the “Plant response rating, Corn” value with corn (Zea mays) [1] and in the experiment on corn (Zea mays) [5] was 0 in each case. In addition, the “Plant response rating, Barnyardgrass” value stood at 20 in [2] and 0 in experiment [16]. Moreover, the “Plant response rating, Crabgrass” value in experiment [3] was found to be 60; in experiment [15], 70. In addition, the “Plant response rating, Morningglory” value in [4] and in experiment [8] was 0 in each case. Further, the “Plant response rating, Wheat” value in experiment [6] and in experiment [7] was 0 in each case. Also, the “Plant response rating, Foxtail, Giant” value in experiment [9] and in experiment [12] was 40 throughout. For the same molecule, the “Plant response rating, Velvetleaf” value in [10] and in experiment [11] was 0 throughout. Also, the “Plant response rating, Pigweed” value stood at 20 in experiment [13] and 0 in experiment [14].
In the case of `O=C(Nc1ccccc1F)C1C(=O)OCC1c1ccc(F)cc1` (racemic) [Compound 2], the “Plant response rating, Corn” value in the experiment on corn (Zea mays) [1] and in the experiment with corn (Zea mays) [5] was 0 in each case. Moreover, the figures for the “Plant response rating, Barnyardgrass” value in experiment [2] and in experiment [16] were 0 and 30, respectively. For the same molecule, the results for the “Plant response rating, Crabgrass” value in [3] and in experiment [15] were 40 and 80, respectively. Moreover, the “Plant response rating, Morningglory” value in [4] and in experiment [8] was 0 each time. The “Plant response rating, Wheat” value in experiment [6] and in experiment [7] was 0 in each case. Also, the “Plant response rating, Foxtail, Giant” value in [9] stood at 50; in [12] it was 0. The “Plant response rating, Velvetleaf” value in experiment [10] and in experiment [11] was 0 in each case. The “Plant response rating, Pigweed” value in experiment [13] and in [14] was 0 each time.
